In PMC12892976, “Alkylation-based optimization of antifungal FPPS inhibitors yields a potent, broad-spectrum lipophilic zoledronate derivative” (mBio, 2025):

Tests used:
[1] = test system: Trichophyton interdigitale; assay: checkerboard drug interaction (FICI, MICc); settings: with VOR;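 also: simplified diagonal checkerboard screen pairing antifungals with FPPS inhibitors, FICI values calculated under the Loewe additivity model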
Experimental: (§2) Drug interactions between antifungals and FPPS inhibitors were investigated using a simplified checkerboard diagonal screening method ([45]). […] FICIs were determined according to the Loewe additivity model ([17]).

Aspergillus lentulus = assay: MIC broth microdilution (CLSI); type: cell-based; settings: Aspergillus lentulus DTO 341-G7
Experimental: (§3) Antifungal susceptibility was determined by broth microdilution according to the CLSI guidelines described in M27-Ed4 ([16]).

[2] = test system: Saccharomyces cerevisiae biofilms; assay: biofilm XTT reduction assay (SIC80, SFICI); type: cell-based; settings: for SICc / SFICI: Saccharomyces cerevisiae
Experimental: (§4) Biofilms of Cryptococcus were seeded in DMEM, and all other species were seeded in RPMI-1640.

[3] = test system: Cryptococcus neoformans biofilms; assay: biofilm XTT reduction assay (SIC80, SFICI); settings: for SICc / SFICI: Cryptococcus neoformans
Experimental: as §4

Fusarium oxysporum = assay: MIC broth microdilution (CLSI); type: cell-based; settings: Fusarium oxysporum 07-200-3012
Experimental: as §3

Candida parapsilosis = assay: MIC broth microdilution (CLSI); type: cell-based; settings: Candida parapsilosis ATCC 22018
Experimental: Antifungal susceptibility was determined by broth microdilution according to the CLSI guidelines described in M27-Ed4 ([16]). […] MFC was determined by back-plating drug-treated cultures from MIC broths onto SDA plates. The MFC was defined as the lowest concentration from which no colonies could be cultured.

[4] = test system: Trichophyton rubrum biofilms; assay: biofilm XTT reduction assay (SIC80, SFICI); type: cell-based; settings: for SICc / SFICI: Trichophyton rubrum
Experimental: as §4

Scedosporium apiospermum = assay: MIC broth microdilution (CLSI); type: cell-based; settings: Scedosporium apiospermum 04-16-022-2268
Experimental: as §3

Rhizopus oryzae [5] = assay: MIC broth microdilution (CLSI); type: cell-based; settings: Rhizopus oryzae 04-14-364-1703
Experimental: as §3

Fusarium solani = assay: MIC broth microdilution (CLSI); settings: Fusarium solani 04-16-056-1862
Experimental: as §3

[6] = test system: Cryptococcus deuterogattii biofilms; assay: biofilm XTT reduction assay (SIC80, SFICI); settings: for SICc / SFICI: Cryptococcus deuterogattii
Experimental: as §4

Lomentospora prolificans [7] = assay: MIC broth microdilution (CLSI); type: cell-based; settings: Lomentospora prolificans 80-16-101-2445
Experimental: as §3

Lomentospora prolificans [8] = assay: checkerboard drug interaction (FICI, MICc);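 also: simplified diagonal checkerboard screen pairing antifungals with FPPS inhibitors, FICI calculated under the Loewe additivity model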
Experimental: as §2

[9] = test system: Candida albicans biofilms; assay: biofilm XTT reduction assay (SIC80, SFICI); settings: for SICc / SFICI: Candida albicans
Experimental: as §4

Cryptococcus gattii = assay: MIC broth microdilution (CLSI); type: cell-based; settings: Cryptococcus gattii PNG27
Experimental: as §3

Trichophyton tonsurans = assay: MIC broth microdilution (CLSI); settings: Trichophyton tonsurans R-168
Experimental: as §3

Rhizopus oryzae [10] = assay: checkerboard drug interaction (FICI, MICc); type: cell-based;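 also: simplified diagonal checkerboard screen pairing antifungals with FPPS inhibitors, FICI calculated under the Loewe additivity model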
Experimental: as §2

[11] = test system: Aspergillus frankstonensis; assay: checkerboard drug interaction (FICI, MICc);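 also: simplified diagonal checkerboard screen pairing antifungals with FPPS inhibitors, FICI calculated using the Loewe additivity model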
Experimental: as §2

[12] = test system: Cryptococcus deneoformans; assay: checkerboard drug interaction (FICI, MICc); type: cell-based;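 also: simplified diagonal checkerboard screen pairing antifungals with FPPS inhibitors, FICI calculated under the Loewe additivity model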
Experimental: as §2

Klebsiella pneumoniae = assay: antibacterial MIC; type: cell-based
From the text: (§1) […]; Table S3). […]. […] […].

Acinetobacter baumanii = assay: antibacterial MIC; type: cell-based; settings: Acinetobacter baumannii
From the text: as §1

Candida dubliniensis = assay: MIC broth microdilution (CLSI); type: cell-based; settings: Candida dubliniensis M230642
Experimental: as §3

Compound: CCCCCCCCCCn1cc[n+](CC(O)(P(=O)(O)O)P(=O)(O)O)c1 [10-ZOL, Decyl-zoledronate]
- bisphosphonate MICc [1]: 0.5
- MIC / MEC (Aspergillus lentulus): 2 µg/mL
- SICc ([2]; FLC:10-ZOL combination): 32 µg/mL
- SFICI ([2]; FLC:10-ZOL): 0.75
- SICc ([2]; ITR:10-ZOL combination): 32 µg/mL
- SFICI ([2]; ITR:10-ZOL): 1.00
- SICc ([2]; KET:10-ZOL combination): 8 µg/mL
- SFICI ([2]; KET:10-ZOL): 0.63
- SIC80 ([2]; agent alone, Saccharomyces cerevisiae S288c): 64 µg/mL
- SICc ([3]; FLC:10-ZOL combination): 32 µg/mL
- SFICI ([3]; FLC:10-ZOL): 0.75
- SICc ([3]; ITR:10-ZOL combination): 16 µg/mL
- SFICI ([3]; ITR:10-ZOL): 0.63
- SICc ([3]; KET:10-ZOL combination): 8 µg/mL
- SFICI ([3]; KET:10-ZOL): 0.56
- SIC80 ([3]; agent alone, Cryptococcus neoformans H99): 128 µg/mL
- MIC / MEC (Fusarium oxysporum): 8 µg/mL
- MIC / MEC (Candida parapsilosis): 1 µg/mL
- FICI range (biofilm) ([4]; azoles with 10-ZOL, Trichophyton rubrum biofilms): 0.38–0.50
- SICc ([4]; biofilm, FLC:10-ZOL combination): 16 µg/mL
- SFICI ([4]; biofilm, FLC:10-ZOL): 0.38
- SICc ([4]; biofilm, ITR:10-ZOL combination): 16 µg/mL
- SFICI ([4]; biofilm, ITR:10-ZOL): 0.38
- SICc ([4]; biofilm, KET:10-ZOL combination): 16 µg/mL
- SFICI ([4]; biofilm, KET:10-ZOL): 0.50
- SIC80 ([4]; biofilm, agent alone, Trichophyton rubrum 213): 64 µg/mL
- MIC / MEC (Scedosporium apiospermum): 4 µg/mL
- MIC / MEC (Rhizopus oryzae [5]): 4 µg/mL
- MIC / MEC (Fusarium solani): 4 µg/mL
- SICc ([6]; FLC:10-ZOL combination): 32 µg/mL
- SFICI ([6]; FLC:10-ZOL): 1.00
- SICc ([6]; ITR:10-ZOL combination): 32 µg/mL
- SFICI ([6]; ITR:10-ZOL): 1.00
- SICc ([6]; KET:10-ZOL combination): 16 µg/mL
- SFICI ([6]; KET:10-ZOL): 0.38
- SIC80 ([6]; agent alone, Cryptococcus deuterogattii R265): 64 µg/mL
- MIC / MEC (Lomentospora prolificans [7]): 2 µg/mL
- FICI (Lomentospora prolificans [8]; CAS:10-ZOL): ≥4
- FICI (Lomentospora prolificans [8]; ITR:10-ZOL): 0.5
- bisphosphonate MICc (Lomentospora prolificans [8]; with 5FC): 1
- bisphosphonate MICc (Lomentospora prolificans [8]; with AMB): 2
- bisphosphonate MICc (Lomentospora prolificans [8]; with CAS): 0.5
- bisphosphonate MICc (Lomentospora prolificans [8]; with FLC): 1
- bisphosphonate MICc (Lomentospora prolificans [8]; with ITR): 0.5
- bisphosphonate MICc (Lomentospora prolificans [8]; with KET): 1
- bisphosphonate MICc (Lomentospora prolificans [8]; with VOR): 1
- SICc ([9]; FLC:10-ZOL combination): 32 µg/mL
- SFICI ([9]; FLC:10-ZOL): 0.50
- SICc ([9]; ITR:10-ZOL combination): 64 µg/mL
- SFICI ([9]; ITR:10-ZOL): 1.00
- SICc ([9]; KET:10-ZOL combination): 64 µg/mL
- SFICI ([9]; KET:10-ZOL): 1.00
- SIC80 ([9]; agent alone, Candida albicans SC5314): 128 µg/mL
- MIC / MEC (Cryptococcus gattii): 0.5 µg/mL
- MIC / MEC (Trichophyton tonsurans): 1 µg/mL
- FICI (Rhizopus oryzae [10]; 5FC:10-ZOL): ≥4
- FICI (Rhizopus oryzae [10]; CAS:10-ZOL): ≥4
- FICI (Rhizopus oryzae [10]; VOR:10-ZOL): 1
- bisphosphonate MICc (Rhizopus oryzae [10]; with 5FC): 2
- bisphosphonate MICc (Rhizopus oryzae [10]; with AMB): 0.25
- bisphosphonate MICc (Rhizopus oryzae [10]; with CAS): 0.5
- bisphosphonate MICc (Rhizopus oryzae [10]; with FLC): 2
- bisphosphonate MICc (Rhizopus oryzae [10]; with ITR): 2
- bisphosphonate MICc (Rhizopus oryzae [10]; with KET): 2
- bisphosphonate MICc (Rhizopus oryzae [10]; with VOR): 2
- FICI ([11]; 5FC:10-ZOL): 3
- FICI ([11]; CAS:10-ZOL): 1.09
- FICI ([11]; ITR:10-ZOL): 1
- FICI ([11]; VOR:10-ZOL): ≥4
- bisphosphonate MICc ([11]; with 5FC): 1
- bisphosphonate MICc ([11]; with AMB): 2
- bisphosphonate MICc ([11]; with CAS): 0.125
- bisphosphonate MICc ([11]; with FLC): 0.5
- bisphosphonate MICc ([11]; with ITR): 0.5
- bisphosphonate MICc ([11]; with KET): 0.5
- bisphosphonate MICc ([11]; with VOR): 2
- FICI ([12]; FLC:10-ZOL): 1
- FICI ([12]; ITR:10-ZOL): 1.55
- FICI ([12]; KET:10-ZOL): 0.61
- FICI ([12]; VOR:10-ZOL): 1.3
- bisphosphonate MICc ([12]; with 5FC): 0.5
- bisphosphonate MICc ([12]; with AMB): 0.125
- bisphosphonate MICc ([12]; with CAS): 1
- bisphosphonate MICc ([12]; with FLC): 0.5
- bisphosphonate MICc ([12]; with ITR): 0.5
- bisphosphonate MICc ([12]; with KET): 0.125
- bisphosphonate MICc ([12]; with VOR): 0.25
- MIC (Klebsiella pneumoniae): 16 µg/mL
- MIC (Acinetobacter baumanii): > 16 µg/mL
- MIC / MEC (Candida dubliniensis): 1 µg/mL
